Experimental data published in patent publication US20220289791A1, “LACTATE DEHYDROGENASE INHIBITOR POLYPEPTIDES FOR USE IN THE TREATMENT OF CANCER” (UNIVERSITÉ CATHOLIQUE DE LOUVAIN, priority 2019, published 2022).
pKd: −log10 of the molar value. *1 amine or outer side, *2 acyl side, *3 side chain or, on linkers, in order; H or OH if unused. Where a SMILES comes first, the peptide text is derived from it. Bridges are numbered along the chain shown (N, C = ends). C6F4(1,4-diyl) = Fc1c(F)c([*:2])c(F)c(F)c1[*:1]

Assays:
truncated LDHB (LDHBtr) = truncated LDHB (LDHBtr) (Homo sapiens, UniProt P07195); assay: Microscale thermophoresis (MST), Example 2, macrocycles against truncated LDHB; format: binding; settings: MST traces at 10 s to 20 s on time
Chain of truncated LDHB (LDHBtr) (P07195 21-334): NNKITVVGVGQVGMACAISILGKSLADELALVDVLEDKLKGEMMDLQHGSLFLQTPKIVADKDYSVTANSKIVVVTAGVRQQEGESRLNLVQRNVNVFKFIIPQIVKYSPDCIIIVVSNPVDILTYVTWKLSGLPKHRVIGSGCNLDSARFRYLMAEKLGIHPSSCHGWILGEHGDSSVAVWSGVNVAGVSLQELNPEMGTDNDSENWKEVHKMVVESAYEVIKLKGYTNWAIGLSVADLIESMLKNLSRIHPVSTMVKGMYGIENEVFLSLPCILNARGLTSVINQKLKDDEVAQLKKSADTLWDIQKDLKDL
Method: MST measurements were performed on a Nanotemper Monolith NT.115 instrument (NanoTemper Technologies®) using Red-dye-NHS fluorescent labeling. Each LDH sample, purified to homogeneity, was labeled with the Monolith Red-dye-NHS 2nd generation labeling dye (NanoTemper Technologies®), according to the manufacturer's instructions. Measurements were performed in 50 mM sodium phosphate, pH 7.6, and 100 mM NaCl containing 0.05% Tween-20 in premium-treated capillaries (NanoTemper Technologies®). The final concentrations of either labeled protein in the assay were 100 nM. The ligands (NADH and peptides) were titrated in 1:1 dilutions following manufacturer's recommendations. All binding reactions were incubated for 5 min at room temperature after loading into capillaries. Experiments were performed in triplicates using 40% LED power, medium MST power, Laser On time 20 s and Laser Off time 3 s. Peptides were evaluated for their thermophoretic pattern, and Kd's were extracted from raw data at a 10 to 20 s MST on time according to manufacturer's instructions. Regarding interaction of 7 with LDH5, Kd was extracted from the raw fluorescence. A denaturation test was performed accordingly to manufacturer recommendation and excluded any nonspecific spectral interaction between 7 and the red-dye. All Kd's of interacting macrocycles and peptides were obtained in triplicate and corrected by taking into account the molecular weight of the TFA counter ion.

human LDH1 = human LDH1 (Homo sapiens, UniProt P07195); assay: nanoDSF thermal denaturation of LDH1; format: binding
Chain of human LDH1 (P07195 whole entry): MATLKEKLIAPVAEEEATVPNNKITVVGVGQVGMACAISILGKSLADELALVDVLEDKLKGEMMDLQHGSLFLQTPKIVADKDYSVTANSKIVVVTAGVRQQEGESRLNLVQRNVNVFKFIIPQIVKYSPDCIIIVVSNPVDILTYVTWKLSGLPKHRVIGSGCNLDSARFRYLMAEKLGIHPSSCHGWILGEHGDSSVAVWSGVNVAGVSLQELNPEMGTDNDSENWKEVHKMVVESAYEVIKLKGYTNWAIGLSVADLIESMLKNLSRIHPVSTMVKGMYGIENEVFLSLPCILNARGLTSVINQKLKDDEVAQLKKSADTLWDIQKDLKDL

human LDH5 = molecular target: T1, human LDH5 (Homo sapiens, UniProt P00338); assay: nanoDSF thermal denaturation of LDH5; format: binding
T1 construct: purchased Abnova

dimeric model of LDH = dimeric model of LDH (Homo sapiens, UniProt P07195); assay: nanoDSF thermal denaturation of dimeric LDH model; format: binding
Chain of dimeric model of LDH (P07195 21-334): as the sequence (P07195 21-334) above

rabbit LDH5 (rLDH5) = molecular target: T2, rabbit LDH5 (rLDH5) (Oryctolagus cuniculus, UniProt P13491); assay: Denaturation assay: rLDH5 fluorescence recovery after acidic exposure; format: biochemical; settings: 200 nM rLDH5, 50 μM peptide, pH 5 then neutral pH
T2 construct: purchased Sigma-Aldrich
Method: Rabbit LDHA commercial solution (Sigma-Aldrich®) in an ammonium sulfate suspension (pH-7, 3.2 M) was first diluted to 1 mg/ml in a solution of NaCl 200 mM and then dialyzed at 4° C. 2×2 h against 200 mM NaCl. The stock solution of 1 mg/ml was then diluted to 30 μg/ml (800 nM) in NaCl 20 0 mM to give the assay solution. Assay solution was mixed 1:1 with acetate-chloride buffer (20 mM Acetic acid/Acetate, 180 mM NaCl, 1 mM DTT pH 5) and stored on ice for 30 minutes. Samples were then removed from ice and let warm up for 2 minutes. The acidic solution was then diluted 1:1 with a 250 mM phosphate buffer (pH 7.6) containing or not the inhibitory peptide to yield a 7.5 μg/ml (200 nM) final concentration of re-associating LDHA. Samples of the resulting solutions were then subjected to kinetic experiments of the recovery of intrinsic fluorescence (Exc=286 nm, Em=350 nm, 10′, rt).
An experiment was thus designed to follow the recovery of LDH tetramers after a dissociation step initiated by acidic conditions. […] Monitoring of the rLDH5 tetrameric state was performed by following its intrinsic tryptophan fluorescence: 6 tryptophan residues can be found in each rLDHA monomer, three of them being located at the dimer-dimer interface. As the tryptophan quantum yield decreases in a polar environment, dimeric LDHs show very weak tryptophan fluorescence compared to the tetrameric form. […] Such decay can be compared to the difference in tryptophan fluorescence between tetrameric LDH1 and dimeric LDHBtr.

LDHBtr = LDHBtr (Homo sapiens, UniProt P07195); assay: Intrinsic fluorescence assay on dimeric LDHBtr; format: biochemical
Chain of LDHBtr (P07195 21-334): as above
Method: Full tryptophan fluorescence spectra were recorded using an excitation wavelength of 286 nm and recording the emission spectra from 320 nm to 400 nm at room temperature. Raw fluorescence of every experiments was further subtracted to a corresponding control experiment without the protein. Experiments were performed in a 50 mM sodium phosphate and 100 mM NaCl, pH 7.6, buffer. For LDH dissociation into subunits, increasing amounts of guanidinium/HCl were put in contact with the studied proteins (1.3 μM), and fluorescence spectra were recorded afterwards. Guanidinium/HCl concentrations ranged from 0.3 M to 2 M.

[1] = test system: Mia Paca-2 human pancreatic cancer cells; assay: Seahorse OCR and ECAR measurement; format: cell-based; settings: 200 μM, 4 h incubation
Method: Macrocyclic peptide MP7 (SEQ ID NO: 61) was evaluated at 200 μM against Mia Paca-2 human pancreatic cancer cells (ATCC®).
The oxygen consumption rate (OCR) and extracellular acidification rate (ECAR) were measured on a Seahorse XF96 analyzer (Agilent®) with a combination of XF cell mito stress kit (Agilent®) and 2-deoxy-D-glucose (2DG; Sigma Aldrich®). Seahorse experiments were performed using 10,000 cells/well in DMEM medium with 10 mmol/L of D-glucose and 1 mmol/L of L-Glutamine Cells were incubated for 1 h in a CO2-free incubator before analysis. […] Oximetry before the addition of any agent provided the basal respiration rate of the cells; ATP-linked reparation was determined after the addition of 1 μM of oligomycin and the maximal respiration rate of the cells after the addition of 1 μM of FCCP. All data were normalized to cell numbers measured right before oximetry using a SpectraMax miniMax 300 imaging cytometer (Molecular Devices®). Macrocyclic peptide MP7 in PBS or PBS alone (control experiment) were added directly into the medium and incubated with Mia Paca-2 cells during 4 h before conducting Seahorse experiments on the medium composed of the Mia Paca-2 cells with or without macrocyclic peptide MP7.

CC[C@H](C)[C@H](NC(=O)[C@H](CC(C)C)NC(=O)[C@H](CCCCN)NC(=O)[C@@H]1CSc2c(F)c(F)c(c(F)c2F)SC[C@H](N)C(=O)N[C@@H]([C@@H](C)O)C(=O)N[C@@H](CC(C)C)C(=O)N[C@@H](CCCCN)C(=O)N1)C(N)=O [MP7, CTLKCKLI] (H-CTLKCKLI-NH2; linker 1-5 via C6F4(1,4-diyl); N-terminus assumed)
pKd (truncated LDHB (LDHBtr)): 4.96 | ΔTm at 400 µM (human LDH1; LDH1, MP7 at 400 μM): -1.5 °C | effect on LDH1 stability (human LDH1; nanoDSF): induced a destabilizing conformational change | ΔTm at 400 µM (human LDH5; LDH-5 tetramer, MP7 at 400 μM): -5 °C | effect on LDH5 stability (human LDH5; nanoDSF): induced a destabilizing conformational change | destabilization of dimeric model of LDH (dimeric model of LDH): did not induce such destabilization | LDH5 fluorescence recovery after acidification (rabbit LDH5 (rLDH5)): significantly interfered | decay of LDHBtr fluorescence spectrum (LDHBtr): did not induce a comparative decay | glycolytic flux (ECAR) [1]: increase | mitochondrial oxygen consumption rate (OCR) [1]: strong decrease
